Where a name gives a salt, the structure may show the parent alone. Read-outs that look alike come from different tables or passages of the source.
Tests used:
[1] = Toxicity (lethal effect, LD50) in mice; assay type: in vivo; conditions: endogastrically, observation 14 days
Experimental: Determination of toxicity of 1-methyl-2-phenylthiomethyl-3-carbethoxy-5-oxy-6-bromindol sulfon as compared with arbidol.
The administration of the preparations was carried out endogastrically, the period of observation of the animals was 14 days.

[2] = test system: avian influenza virus (H5N1); assay type: in vivo, white mice; conditions: orally
[3] = test system: influenza virus A/PR/8/34; assay type: cell-based; conditions: influenza virus A/PR/8/34, MDCK cells; concentration not given
[4] = test system: influenza A/Singapore/1/57 virus; experiment: microbe, parasite or virus in culture; assay type: cell-based; conditions: for Percent of inhibition of OD 490: added 2 hours after infection

SMILES: CCOC(=O)c1c(CSc2ccccc2)n(C)c2cc(Br)c(O)c(CN(C)C)c12 [Arbidol, 1-methyl-2-phenylthiomethyl-3-carbethoxy-4-dimethylaminomethyl-5-oxy-6-bromindol hydrochloride]
- Lethal effect upon administration to mice ([1]; Dose 100 mg/kg): 0/6
- Lethal effect upon administration to mice ([1]; Dose 250 mg/kg): 0/6
- Lethal effect upon administration to mice ([1]; Dose 500 mg/kg): 1/6
- Lethal effect upon administration to mice ([1]; Dose 1000 mg/kg): 3/6
- Lethal effect upon administration to mice ([1]; Dose 3000 mg/kg): 6/6
- LD50 at 14 days ([1]; mouse, in vivo, oral, mice): 860 ± 50 mg/kg
- Surviving mice, % ([2]; Arbidol 30 mg/kg + Oseltamivir 0.25 mg/kg): 70%
- Surviving mice, % ([2]; Arbidol 30 mg/kg + Oseltamivir 1.0 mg/kg): 85%
- Surviving mice, % ([2]; Arbidol 30 mg/kg + Oseltamivir 2.5 mg/kg): 100%
- Surviving mice, % ([2]; Arbidol 30 mg/kg alone (Oseltamivir 0 mg/kg)): 65%
- Percent of suppression of virus reproduction [3]: 60%
- suppression of virus reproduction ([4]; 1 μg of arbidol with 10-12 mg of zanamivir or oseltamivir): 100%
- Percent of inhibition of OD 490 ([4]; A or B 0.3 μg/ml + Zanamivir 0.3 μg): 20%
- Percent of inhibition of OD 490 ([4]; A or B 0.3 μg/ml + Zanamivir 1 μg): 30%
- Percent of inhibition of OD 490 ([4]; A or B 0.3 μg/ml + Zanamivir 3.3 μg): 37%
- Percent of inhibition of OD 490 ([4]; A or B 0.3 μg/ml + Zanamivir 10 μg): 48%
- Percent of inhibition of OD 490 ([4]; A or B 0.3 μg/ml + Zanamivir 33 μg): 60%
- Percent of inhibition of OD 490 ([4]; A or B 1 μg/ml + Zanamivir 0.3 μg): 33%
- Percent of inhibition of OD 490 ([4]; A or B 1 μg/ml + Zanamivir 3.3 μg): 46%
- Percent of inhibition of OD 490 ([4]; A or B 1 μg/ml + Zanamivir 10 μg): 100%
- Percent of inhibition of OD 490 ([4]; A or B 1 μg/ml + Zanamivir 33 μg): 100%
- Percent of inhibition of OD 490 ([4]; A or B 3 μg/ml + Zanamivir 0.3 μg): 60%
- Percent of inhibition of OD 490 ([4]; A or B 3 μg/ml + Zanamivir 1 μg): 58%
- Percent of inhibition of OD 490 ([4]; A or B 3 μg/ml + Zanamivir 3.3 μg): 93%
- Percent of inhibition of OD 490 ([4]; A or B 3 μg/ml + Zanamivir 10 μg): 100%
- Percent of inhibition of OD 490 ([4]; A or B 3 μg/ml + Zanamivir 33 μg): 100%
- Percent of inhibition of OD 490 ([4]; A or B 5 μg/ml + Zanamivir 0.3 μg): 69%
- Percent of inhibition of OD 490 ([4]; A or B 5 μg/ml + Zanamivir 1 μg): 85%
- Percent of inhibition of OD 490 ([4]; A or B 5 μg/ml + Zanamivir 3.3 μg): 88%
- Percent of inhibition of OD 490 ([4]; A or B 5 μg/ml + Zanamivir 10 μg): 100%
- Percent of inhibition of OD 490 ([4]; A or B 5 μg/ml + Zanamivir 33 μg): 100%
- Percent of inhibition of OD 490 ([4]; A or B 10 μg/ml + Zanamivir 0.3 μg): 71%
- Percent of inhibition of OD 490 ([4]; A or B 10 μg/ml + Zanamivir 1 μg): 85%
- Percent of inhibition of OD 490 ([4]; A or B 10 μg/ml + Zanamivir 3.3 μg): 98%
- Percent of inhibition of OD 490 ([4]; A or B 10 μg/ml + Zanamivir 10 μg): 100, 100%
- Percent of inhibition of OD 490 ([4]; A or B 10 μg/ml + Zanamivir 33 μg): 100, 100%
- Percent of inhibition of OD 490 ([4]; A or B 10 μg/ml alone (Zanamivir 0)): 22%
- Percent of inhibition of OD 490 ([4]; A or C 0.3 μg/ml + Oseltamivir 0.4 μg): 35%
- Percent of inhibition of OD 490 ([4]; A or C 0.3 μg/ml + Oseltamivir 4.1 μg): 37%
- Percent of inhibition of OD 490 ([4]; A or C 0.3 μg/ml + Oseltamivir 12.3 μg): 47%
- Percent of inhibition of OD 490 ([4]; A or C 1 μg/ml + Oseltamivir 0.4 μg): 48%
- Percent of inhibition of OD 490 ([4]; A or C 1 μg/ml + Oseltamivir 1.2 μg): 59%
- Percent of inhibition of OD 490 ([4]; A or C 1 μg/ml + Oseltamivir 4.1 μg): 56%
- Percent of inhibition of OD 490 ([4]; A or C 1 μg/ml + Oseltamivir 12.3 μg): 100%
- Percent of inhibition of OD 490 ([4]; A or C 1 μg/ml + Oseltamivir 41 μg): 100%
- Percent of inhibition of OD 490 ([4]; A or C 3 μg/ml + Oseltamivir 0.4 μg): 62%
- Percent of inhibition of OD 490 ([4]; A or C 3 μg/ml + Oseltamivir 1.2 μg): 58%
- Percent of inhibition of OD 490 ([4]; A or C 3 μg/ml + Oseltamivir 4.1 μg): 90%
- Percent of inhibition of OD 490 ([4]; A or C 3 μg/ml + Oseltamivir 12.3 μg): 100%
- Percent of inhibition of OD 490 ([4]; A or C 3 μg/ml + Oseltamivir 41 μg): 100, 100%
- Percent of inhibition of OD 490 ([4]; A or C 5 μg/ml + Oseltamivir 0.4 μg): 79%
- Percent of inhibition of OD 490 ([4]; A or C 5 μg/ml + Oseltamivir 1.2 μg): 84%
- Percent of inhibition of OD 490 ([4]; A or C 5 μg/ml + Oseltamivir 4.1 μg): 100%
- Percent of inhibition of OD 490 ([4]; A or C 5 μg/ml + Oseltamivir 12.3 μg): 98%
- Percent of inhibition of OD 490 ([4]; A or C 5 μg/ml + Oseltamivir 41 μg): 100, 100%
- Percent of inhibition of OD 490 ([4]; A or C 10 μg/ml + Oseltamivir 0.4 μg): 70%
- Percent of inhibition of OD 490 ([4]; A or C 10 μg/ml + Oseltamivir 1.2 μg): 85%
- Percent of inhibition of OD 490 ([4]; A or C 10 μg/ml + Oseltamivir 4.1 μg): 100%
- Percent of inhibition of OD 490 ([4]; A or C 10 μg/ml + Oseltamivir 12.3 μg): 100%
- Percent of inhibition of OD 490 ([4]; A or C 10 μg/ml + Oseltamivir 41 μg): 100%

Reference: patent US20090326037A1 (priority 2005, published 2009)
